In the test the target is T1, human M4 muscarinic acetylcholine receptor (Homo sapiens, UniProt P08173).
T1 construct: expressed in transfected cells; host or cells: CHO-K1
T1 sequence (P08173 1-479): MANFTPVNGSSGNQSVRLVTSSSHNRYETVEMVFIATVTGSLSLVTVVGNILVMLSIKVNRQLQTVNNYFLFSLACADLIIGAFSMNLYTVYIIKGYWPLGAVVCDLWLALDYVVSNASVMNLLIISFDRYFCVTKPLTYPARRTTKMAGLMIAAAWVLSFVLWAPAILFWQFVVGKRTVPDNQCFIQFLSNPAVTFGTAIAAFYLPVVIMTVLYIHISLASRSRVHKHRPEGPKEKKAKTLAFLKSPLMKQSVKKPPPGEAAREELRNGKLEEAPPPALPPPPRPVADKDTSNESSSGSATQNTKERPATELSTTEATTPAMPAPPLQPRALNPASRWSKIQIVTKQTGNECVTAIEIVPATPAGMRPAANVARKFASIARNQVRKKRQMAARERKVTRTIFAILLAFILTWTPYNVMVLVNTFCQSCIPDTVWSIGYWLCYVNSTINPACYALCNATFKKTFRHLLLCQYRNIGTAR
Description: human FLIPR-based M4 PAM assay (CHO-K1 cells with human M4 receptor and Gαqi5, calcium dye fluorescence, acetylcholine at 20% of maximum response). The following applies: inflection point (IP) of 4 parameter logistic dose response curve, human M4 receptor + Gαqi5, FLIPR Tetra. Type of test: cell-based. The method, then: In a typical experiment the M4 muscarinic acetylcholine receptor modulating activity of the compounds of the present invention was determined in accordance with the following experimental method. CHO-K1 cells stably transfected with human M4 receptor and chimeric G-protein Gαqi5 (Coward P, et al., Analytical Biochemistry, 270:242-248 (1999)) are thawed from liquid N2 storage, resuspended in growth medium, plated in black, clear bottom 384 well plates, and incubated 16-20 hours at 37° C., 5% CO2. On the day of assay, growth medium is removed, the cells are washed 2 times with wash buffer, and cells are incubated in dye loading buffer at 37° C., 5% CO2 for ˜1 hour. Following dye loading the cell plates are placed in a FLIPR Tetra instrument and while monitoring dye fluorescence (excitation […]), 10 uL of test substance at increasing concentrations is added, and fluorescence values are recorded for 4 min. Next, 10 uL of acetylcholine is added (final concentration calculated so as to achieve 20% of the maximum acetycholine response), and the fluorescence reading is continued for 3.5 min. In some cases, a third addition of acetylcholine (final concentration calculated to achieve 70% of the maximal acetylcholine response) is performed. The resulting dose response curves are fit to a 4 parameter logistic equation and the final result is determined as the inflection point (IP) of the curve
CHO-K1 cells stably transfected with human M4 receptor and chimeric G-protein Gαqi5 are thawed from liquid N2 storage, resuspended in growth medium, plated in black, clear bottom 384 well plates, and incubated 16-20 hours at 37° C., 5% CO2.
On the day of assay, growth medium is removed, the cells are washed 2 times with wash buffer, and cells are incubated in dye loading buffer at 37° C., 5% CO2 for ˜1 h. Following dye loading the cell plates are placed in a FLIPR Tetra instrument and while monitoring dye fluorescence ([…]), 10 uL of test substance at increasing concentrations is added, and fluorescence values are recorded for 4 min. Next, 10 uL of acetylcholine is added (final concentration calculated so as to achieve 20% of the maximum acetycholine response), and the fluorescence reading is continued for 3.5 min. In some cases, a third addition of acetylcholine (final concentration calculated to achieve 70% of the maximal acetylcholine response) is performed.
In the case of `COc1ccc(OC2CCN(c3nc4c(cc3C)c(=O)[nH]n4C)CC2)cn1` [Example 25, 6-(4-((6-methoxypyridin-3-yl)oxy)piperidin-1-yl)-1,5-dimethyl-1,2-dihydro-3H-pyrazolo[3,4-b]pyridin-3-one], the EC50 (usually the concentration needed to bring the measured effect to its halfway point) was found to be 249 nM.

`COc1ccc(OC2CCN(c3nc4nn(CCO)c(=O)n4cc3C)CC2)cn1` [Example 14, 2-(2-hydroxyethyl)-7-(4-((6-methoxypyridin-3-yl)oxy)piperidin-1-yl)-6-methyl-[1,2,4]triazolo[4,3-a]pyrimidin-3(2H)-one]: the EC50 was found to be 69 nM.

In the case of `COc1ccc(OC2CCN(c3nc4c(cc3C)COC4=O)CC2)cn1` [Example 20, 2-(4-((6-Methoxypyridin-3-yl)oxy)piperidin-1-yl)-3-methylfuro[3,4-b]pyridin-7(5H)-one], the EC50 was 151 nM. With `Cc1cc2c(nc1N1CCC(Oc3ccc4c(c3)COC4)CC1)C1COCCN1C2=O` (single isomer, unassigned) [Example 81B], the EC50 amounted to 163 nM. As to `COc1ccc(OC2CCN(c3nc4c(cc3C)CN(C(=O)C(C)(C)C)C4)CC2)cn1` [Example 45, 1-(2-(4-((6-methoxypyridin-3-yl)oxy)piperidin-1-yl)-3-methyl-5,7-dihydro-6H-pyrrolo[3,4-b]pyridin-6-yl)-2,2-dimethylpropan-1-one], the EC50 worked out at 235 nM. As to `COc1ccc(OC2CCN(c3nc4c(cc3C)C(=O)OC4)CC2)cn1` [Example 21, 2-(4-((6-Methoxypyridin-3-yl)oxy)piperidin-1-yl)-3-methylfuro[3,4-b]pyridin-5(7H)-one], the 50% effective concentration (EC50) was 22 nM. Regarding `Cc1cc2c(nc1N1CCC(Oc3ccc4c(c3)COC4)CC1)C1CNCCN1C2=O` (single isomer, unassigned) [Example 83A], the EC50 stood at 103 nM. Regarding `COc1ccc(OC2CCN(c3nc4c(cc3C)C(O)CC4)CC2)cn1` (single isomer, unassigned) [Example 71B], the EC50 worked out at 1050 nM.

Take `Cc1cn2c(=O)[nH]nc2nc1N1CCC(Oc2ccc3c(c2)COC3)CC1` [Example 2, 7-(4-((1,3-Dihydro-2-benzofuran-5-yl)oxy)piperidin-1-yl)-6-methyl-[1,2,4]triazolo[4,3-a]pyrimidin-3(2H)-one]: the EC50 amounted to 20 nM. For the molecule `COC(=O)N1Cc2cc(C)c(N3CCC(Oc4ccc(OC)nc4)CC3)nc2C1` [Example 61, methyl 2-(4-((6-methoxypyridin-3-yl)oxy)piperidin-1-yl)-3-methyl-5,7-dihydro-6H-pyrrolo[3,4-b]pyridine-6-carboxylate], the concentration giving a half-maximal response (EC50) is 156 nM. With `COc1ccc(OC2CCN(c3nc4c(cc3C)CN(C(=O)C3CCO3)C4)CC2)cn1` (centres unmarked) [Example 48, (2-(4-((6-methoxypyridin-3-yl)oxy)piperidin-1-yl)-3-methyl-5,7-dihydro-6H-pyrrolo[3,4-b]pyridin-6-yl)(oxetan-2-yl)methanone], the EC50 was 167 nM. Consider `Cc1cn2c(=O)n(CCO)nc2nc1N1CCC(Oc2ccc3c(c2)COC3)CC1` [Example 13, 7-(4-((1,3-Dihydro-2-benzofuran-5-yl)oxy)piperidin-1-yl)-2-(2-hydroxyethyl)-6-methyl-[1,2,4]triazolo[4,3-a]pyrimidin-3(2H)-one], for which the EC50 was found to be 47 nM. In the case of `Cc1cn2c(=O)n(C)nc2nc1N1CCC(OCC2(C)CC2)CC1` [Example 3, 2,6-Dimethyl-7-(4-((1-methylcyclopropyl)methoxy)piperidin-1-yl)-[1,2,4]triazolo[4,3-a]pyrimidin-3(2H)-one], the EC50 was 79 nM.

Turning to `Cc1cc2c(nc1N1CCC(Oc3ccc4c(c3)COC4)CC1)C1COCCN1C2=O` (single isomer, unassigned) [Example 81A], the EC50 is 29 nM. The figure for `Cc1cn2c(=O)[nH]nc2nc1N1CC[C@@H](Oc2ccc3c(cnn3C)c2)[C@@H](F)C1` [Example 5, 7-((3S,4R)-3-fluoro-4-((1-methyl-1H-indazol-5-yl)oxy)piperidin-1-yl)-6-methyl-[1,2,4]triazolo[4,3-a]pyrimidin-3(2H)-one] is 62 nM; for `COc1ccc(OC2CCN(c3nc4nccn4cc3C)CC2)cn1` [Example 67, 7-(4-((6-methoxypyridin-3-yl)oxy)piperidin-1-yl)-6-methylimidazo[1,2-a]pyrimidine] it is 765 nM.

On to `Cc1cn2c(=O)[nH]nc2nc1N1CCC(Oc2cccc(C#N)c2)CC1` [Example 16, 3-((1-(6-methyl-3-oxo-2,3-dihydro-[1,2,4]triazolo[4,3-a]pyrimidin-7-yl)piperidin-4-yl)oxy)benzonitrile], for which the concentration giving a half-maximal response (EC50) stood at 35 nM. Consider `COc1ccc(OC2CCN(c3nc4nn(C)c(=O)n4cc3C)CC2)cn1` [Example 11, 7-(4-((6-methoxypyridin-3-yl)oxy)piperidin-1-yl)-2,6-dimethyl-[1,2,4]triazolo[4,3-a]pyrimidin-3(2H)-one], for which the EC50 was 87 nM. Consider `Cc1cn2c(=O)n(C)nc2nc1N1CCC(Oc2ccc3c(cnn3C)c2)CC1` [Example 9, 2,6-dimethyl-7-(4-((1-methyl-1H-indazol-5-yl)oxy)piperidin-1-yl)-[1,2,4]triazolo[4,3-a]pyrimidin-3(2H)-one], for which the EC50 was 112 nM. Turning to `COc1ccc(OC2CCN(c3nc4c(C)n[nH]c4cc3C)CC2)cn1` [Example 65, 5-(4-((6-Methoxypyridin-3-yl)oxy)piperidin-1-yl)-3,6-dimethyl-1H-pyrazolo [4,3-b]pyridine], the concentration for a half-maximal effect (EC50) came to 1650 nM. For `COc1ccc(OC2CCN(c3nc4c(cc3C)S(=O)(=O)NC4)CC2)cn1` [Example 75, 5-(4-((6-Methoxypyridin-3-yl)oxy)piperidin-1-yl)-6-methyl-2,3-dihydroisothiazolo[4,5-b]pyridine 1,1-dioxide] the value was 165 nM; for `COc1ccc(OC2CCN(c3nc4nnc(C(F)(F)F)n4cc3C)CC2)cn1` [Example 80, 7-(4-((6-Methoxypyridin-3-yl)oxy)piperidin-1-yl)-6-methyl-3-(trifluoromethyl)-[1,2,4]triazolo[4,3-a]pyrimidine], 3090 nM. Turning to `COc1ccc(OC2CCN(c3nc4c(cc3C)CNC4=O)CC2)cn1` [Example 1, (4-((6-Methoxypyridin-3-yl)oxy)piperidin-1-yl)-3-methyl-5H-pyrrolo[3,4-b]pyridin-7(6H)-one], the EC50 came to 193 nM. As to `Cc1cc2c(nc1N1CCC(Oc3cccc(C#N)c3)CC1)COC2=O` [Example 32, 3-((1-(3-methyl-5-oxo-5,7-dihydrofuro[3,4-b]pyridin-2-yl)piperidin-4-yl)oxy)benzonitrile], the EC50 amounted to 14 nM. As to `COc1ccc(OC2CCN(c3nc4c(cnn4C)cc3C)CC2)cn1` [Example 38, 6-(4-((6-methoxypyridin-3-yl)oxy)piperidin-1-yl)-1,5-dimethyl-1H-pyrazolo[3,4-b]pyridine], the EC50 was found to be 397 nM.

As to `Cc1cn2c(=O)[nH]nc2nc1N1CCC(Oc2ccccc2)CC1` [Example 15, 6-Methyl-7-(4-phenoxypiperidine-1-yl)-[1.2.4]triazolo[4,3-a]pyrimidin-3(2H)-one], the EC50 was 55 nM. As to `Cc1cc2c(nc1N1CCC(Oc3ccccc3)CC1)CN(S(C)(=O)=O)C2` [Example 60, 3-methyl-6-(methylsulfonyl)-2-(4-phenoxypiperidin-1-yl)-6,7-dihydro-5H-pyrrolo[3,4-b]pyridine], the EC50 amounted to 20 nM. `Cc1cc2c(=O)[nH][nH]c2nc1N1CCC(Oc2cccc(C#N)c2)CC1` [Example 22, 3-((1-(5-methyl-3-oxo 2,3-dihydro-1H-pyrazolo[3,4-b]pyridin-6-yl)piperidin-4-yl)oxy)benzonitrile]: the EC50 was 57 nM. On to “(R)-2-(4-((6-Methoxypyridin-3-yl)oxy)piperidin-1-yl)-3,7-dimethylfuro[3,4-b]pyridin-5(7H)-one and (S)-2-(4-((6-methoxypyridin-3-yl)oxy)piperidin-1-yl)-3,7-dimethylfuro[3,4-b]pyridin-5(7H)-one [Example 29A]”, for which the EC50 was determined as 267 nM.

Values taken from patent publication US11230556B2 (Merck Sharp & Dohme Corp., priority 2016, dated 2022).
